Laboratory results reported in patent US20150224061A1, “NANOCONSTRUCTS WITH PHARMACOLOGICAL ACTIVITY” (UNIVERSITA' DEGLI STUDI DI MILANO - BICOCCA, priority 2012, published 2015).
Like-named read-outs stand apart in the source and are kept apart here. Where no end group is shown, it is not given here.

Columns and labels:
[1] = tested on: NFAT-dependent edema induced by LPS; assay: LPS-induced paw edema model; type: in vivo, mouse; conditions: subcutaneous pretreatment 2 hours prior to LPS in the paw
Protocol: FIG. 4. Inhibition of the NFAT pathway in the formation of edema of the paw in response to LPS. The animals were pretreated, or not, with the nanoconstructs (MYTS-VIVIT) or FK-506 (approximately 2 h) and were then treated locally with LPS.
To assess whether the nanoparticles of the present invention are able to inhibit in vivo the formation of LPS-induced edema, the mice were pretreated, or not, with the nanoconstructs of example 1 or FK506 as control sub-cutaneously for 2 hours prior to the injection of LPS in the paw.

[2] = tested on: transduction signal pathway of NFAT; assay: IL-2 production (ELISA) by LPS-stimulated DCs derived from bone marrow, marker of NFAT pathway; type: cell-based, mouse; conditions: 18 hours; for inhibition of NFAT activity (IL-2 release, ELISA): peptide 25 uM pretreatment, LPS 100 ng/ml
Protocol: (§1) FIG. 2. Inhibition of the transduction of the NFAT signals by means of the MYTS-VIVIT nanoconstructs in DCs derived from bone marrow. The DCs were pre-treated, or not, with the indicated quantities of MYTS-VIVIT for two hours and then activated with LPS for 18 hours. The quantities of IL-2 and TNFα in the supernatant were measured using the ELISA method.
(§2) In order to assess whether nanoconstructs are able to inhibit the transduction signal pathway of NFAT, the following experiments were carried out in vitro. After exposure to LPS, the DCs derived from bone marrow were able to produce various inflammatory cytokines, including IL-2 and TNFα. IL-2 was strictly NFAT-dependent, whereas the production of TNFα was NF-kB-dependent and NFAT-independent. IL-2 and TNFα are therefore valid markers respectively of the activation pathway of NFAT and NF-kB. After two hours of pretreatment with the nanoconstructs obtained as described in example 1, the DCs derived from bone marrow were stimulated with LPS and the quantity of released cytokines was measured using the ELISA method 18 hours later.
(§3) DCs produce IL-2 in an NFAT-dependent manner if stimulated with LPS. To assess the efficacy of the VIVIT peptide, DCs derived from bone marrow were transduced with a sequence coding the VIVIT peptide fused with the GFP protein through use of a retroviral vector.
Since DCs are phagocyte cells, we firstly used the non-modified peptide, assuming that this could reach the cell cytosol once entered into the endosomal compartment. We then carried out co-cultures of DCs with the VIVIT peptide, and the inhibition of NFAT was analyzed by measuring the production of IL-2 following stimulation with LPS. […] A modified VIVIT peptide was then assessed, to which a […] 11-arginine tail had been attached. It has, in fact, been described in the literature that this modification can allow entry into the cells.

inflammatory arthritis = assay: Arthritis induced by anti-collagen antibodies/LPS; type: in vivo, C57BL6 mice; conditions: treated on days −1, 0, +1, +3, +6, +9, +12
Protocol: FIG. 5. Inhibition of the development of arthritis. FIG. 5A: the mice were treated endovenously, or were not treated, at −1, 0, +1, +3, +6, +9, and +12 days with the nanoconstructs (MYTS-VIVIT) or with nanoconjugates MYTS-VEET (a peptide similar to VIVIT in which the sequence has been modified, thus losing specificity for Cn). Day 0 represents the start of the procedure of inducing arthritis. The clinical points indicative of the severity of the arthritis were assessed on the days indicated. In FIG. 5B, photographs showing arthritis on the seventh day in a treated mouse and in an untreated mouse are shown.
Rheumatoid arthritis (AR) is a chronic, debilitating systemic autoimmune disease characterized by an immunological inflammatory reaction of the mesenchymal tissue and of the synovial fluid accompanied by polyarticular synovitis. Over time, it leads to the progressive destruction of the articular and periarticular structures. […] To verify whether the nanoconstructs of the present invention are able to inhibit the development of inflammatory arthritis, a model of arthritis induced by anti-collagen antibody of the IL/LPS type was used. In particular, six C57BL6 mice were treated on days −1, 0, +1, +3, +6, +9, +12 with the nanoconstructs of example 1.

NF-kB = assay: TNFα production (ELISA) by LPS-stimulated DCs derived from bone marrow, marker of NF-kB pathway; type: cell-based, mouse; conditions: 2 h pretreatment, then LPS, 18 hours
Protocol: as §1, §2, §3

[3] = tested on: transduction signal pathway of NFAT; assay: GFP+ Ly6G+ spleen neutrophils in IL-2/GFP mutant mice after LPS; type: in vivo, mouse; conditions: i.v. two hours before LPS injection
Protocol: FIG. 3. The NFAT pathway is active in the neutrophils. Mice genetically modified by IL-2/GFP were treated, or not, with MYTS-VIVIT and were then injected intravenously two hours after with LPS. The bars represent the percentage of GFP+Ly6G^+ spleen neutrophils […] after the treatment with LPS. In this mouse model, GFP was inserted in the second exon of IL-2 and therefore has the same regulation of IL-2.
Mutant mice (obtained from laboratories of Ronald H. Schwartz, NIH Bethesda) were used for this experiment. In this mouse model, the GFP protein was inserted into the second exon of the gene IL-2, and therefore had the same regulation of IL-2. As mentioned before, IL-2 is a marker of NFAT activation. If the mice genetically modified with regard to IL-2/GFP are treated with LPS, a significant percentage of GFP+ neutrophils (Ly6G+ cells) can be measured in the spleen two hours after treatment. To verify whether the nanoconstructs of the present invention are able to inhibit the signal pathway of NFAT in vivo, mutant mice were injected endovenously with the nanoconstructs as prepared in example 1 two hours before the injection of LPS.

[4] = tested on: skin transplant rejection; assay: Skin transplant rejection model (male skin into female mice); type: in vivo, mouse
Protocol: FIG. 6. Inhibition of skin transplant rejection. Male skin was grafted in female mice. The mice were then injected endovenously, or not, with the nanoconstructs (MYTS-VIVIT or MYTS-VEET) on days −1, 0, +1, +3, +6, +9, +12, and +15. In addition, the mice were then left without treatment for a further 20 days. The boxes M in M represent the untreated controls and show the skin transplant from male mouse to male mouse. […] The boxes M in F represent the skin transplant from male mouse to female mouse without treatment with the nanoconstructs. The scar of the rejection is clearly visible on day 30. The rejection can also be seen in boxes M in F (male into female) treated with the control MYTS-VEET nanoconstructs. Vice versa, in the boxes representing the transplant from male to female with MYTS-VIVIT treatment (M in F+MYTS-VIVIT), the acceptance of the graft is clearly visible. The bar chart beneath represents a quantification of the results of the experiment. To summarize, the transplant was accepted in 80% of cases treated with the MYTS-VIVIT nanoconstructs, whereas it was rejected in 100% of untreated cases and in 80% of cases treated with the control MYTS-VEET nanoconstruct.
To verify whether the nanoconstructs of the present invention are able to inhibit transplant rejection, a skin transplant model was used. […]

calcineurin (Cn) = conditions: cited from earlier work
NFAT = conditions: cited from earlier work
[5] = tested on: NF-kB transcription factor; conditions: cited from earlier work
neurons = conditions: i.v., 1 hour, magnet applied to the skull
Protocol: Then, a staining of the neurons was carried out with the fluorescent probe NeuroTrace (which stains the substance Nissi, which is abundant in neuronal cells and is formed from ribosomal RNA associated with the endoplasmic reticulum).

MYTS-VIVIT (H-CGGGKMAGPVIVITGPHEE-OH; not fully specified; printed as NH2—CGGGKMAGPVIVITGPHEE-COOH)
formation of LPS-induced paw edema [1]: significantly inhibited | IL-2 released (ELISA) ([2]; 2 h pretreatment, then LPS): completely block IL-2 | development of arthritis (clinical points) (inflammatory arthritis): inhibit the development of arthritis very effectively | TNFα released (ELISA) (NF-kB): not the production of TNFα | percentage of GFP+ Ly6G+ spleen neutrophils [3]: strong impact on the ability of the neutrophils to produce GFP | skin transplants accepted ([4]; i.v. treatment from day −1, after four weeks / day 30): 80% | skin transplants accepted ([4]; i.v. treatment from day −1, after four weeks / day 30, listed as nanoconstructs bearing the VIVIT peptide): 90%

NH2—CGGGKMAGPVIVITGPHEE-COOH (H-CGGGKMAGPVIVITGPHEE-OH; listed as Homo sapiens)
inhibition of NFAT activity (IL-2 release, ELISA) [2]: unable to penetrate into the cytosol of the DCs and to block the activity of NFATs | inhibition of NFAT activity (IL-2 release, ELISA) ([2]; listed as free, non-modified VIVIT peptide): did not make it possible to interfere with the activity of NFAT

Val-Ile-Val-Ile-Thr [VIVIT]
affinity for Cn (calcineurin (Cn)): increased affinity for Cn | inhibition of NFAT (gene reporter) (NFAT): effectively inhibits NFAT and its activity | inhibition of NF-kB (gene reporter) [5]: not the activity of the NF-kB transcription factor

enfuvirtide
accumulation of AF660-labeled drug in neurons (confocal microscopy) (neurons; listed as free enfuvirtide): only in the case of the drug conjugated to the MYTS nanoparticles | accumulation of AF660-labeled drug in neurons (confocal microscopy) (neurons; listed as labeled drug not conjugated to the nanoparticles): traces of fluorescence cannot be seen

peptide with an 11-arginine tail: peptide with sequence SEQ ID NO:1 conjugated with an 11-arginine tail (CGGGKMAGPVIVITGPHEE; also: 11-arginine tail conjugated, end not given here; listed as Homo sapiens)
inhibition of NFAT activity (IL-2 release, ELISA) [2]: unable to penetrate into the cytosol of the DCs and to block the activity of NFATs | inhibition of NFAT activity (IL-2 release, ELISA) ([2]; listed as modified VIVIT peptide): not possible to observe any inhibition of the NFAT pathway
